The record followed here is patent US8263044B2, “Stilbene like compounds as novel HDAC inhibitors” (Orchid Research Laboratories Limited, priority 2005, dated 2012).

Assay [1] concerns NCIH460, HCT116, MDAMB231/U251. Description: Anti-cancer screen, mean GI50 over the cell lines. The format is cell-based. As to conditions: mean over the three cell lines; no unit in table. As for the experimental part: (§1) Experimental drugs are screened for anti-cancer activity in three cell lines for their GI50, TGI and LC50 values (using five concentrations for each compound). The cell lines are maintained in DMEM containing 10% fetal bovine serum. 96 well micro titer plates are inoculated with cells in 100 μL for 24 h at 37° C., 5% CO2, 95% air and 100% relative humidity. 5000 HCT 116 cells/well, 5000 NCIH 460 cells/well and 5000 U251 cells/well are plated. A separate plate with these cell lines is also inoculated to determine cell viability before the addition of the compounds (T0) (See Table I).
(§2) Following 24-hour incubation, experimental drugs are added to the 96 well plates. Each plate contains one of the above cell lines and the following in triplicate: five different concentrations (0.01, 0.1, 1, 10 and 100 μM) of four different compounds, appropriate dilutions of a cytotoxic standard and control (untreated) wells. Compounds are dissolved in DMSO to make 20 mM stock solutions on the day of drug addition and frozen at −20° C. Serial dilutions of these 20 mM stock solutions are made in complete growth medium such that 100 μL of these drug solutions in medium, of final concentrations equaling 0.01, 0.1, 1, 10 and 100 μM can be added to the cells in triplicate. […] (See Table I).
(§3) For T0 measurement, 24 hours after seeding the cells, 10 μL of 3-(4,5-Dimethyl-2-thiazolyl)-2,5-diphenyl-2H-tetrazolium (MTT) solution per well is added and incubation carried out for 3 hours at 37° C., 5% CO2, 95% air and 100% relative humidity, protected from light. Cells incubated with compounds for 48 hours are treated similarly except with the addition of 20 μL MTT solution per well and a subsequent incubation under the same conditions. After 3 hours of MTT incubation, well contents are aspirated carefully followed by addition of 150 μL DMSO per well. Plates are agitated to ensure solution of the formazan crystals in DMSO and absorbance read at 570 nm. (See Table I).
Percent growth is calculated for each compound's concentration relative to the control and zero measurement wells (T0; viability right before compound addition). […]

Assay [2] concerns MDAMB231/U251. As to the kind of experiment: cells. As to conditions: 48 h, read-out: MDAMB231/U251 LC50.
Assay [3] relates to HDAC activity (Mouse Liver Extract). Description: Histone Deacetylase (HDAC) Inhibition Assay using Boc-Lys (Ac)-AMC Substrate. Format: biochemical. As to conditions: mouse liver enzyme; for HDAC Inhibition 1 μM: inhibitor at 1 μM; for HDAC Inhibition 1 μM / HDAC Inhibition 10 μM: in % (unit assumed); for HDAC Inhibition 10 μM: inhibitor at 10 μM. As for the experimental part: Histone Deacetylase (HDAC) Inhibition Assay using Boc-Lys (Ac)-AMC Substrate: Inhibition of HDAC has been implicated to modulate transcription and to induce apoptosis or differentiation in cancer cells. The fluorometric assay provides a fast and fluorescence based method that eliminates radioactivity, extractions or chromatography, as used in traditional assays. The assay based on two steps. First, the HDAC fluorometric substrate, which comprises an acetylated lysine side chain, is incubated with a sample containing HDAC activity (Mouse Liver Extract). Deacetylation of the substrate sensitizes the substrate, in the second step; treatment with the Trypsin stop solution produces a fluorophore that can be easily analyzed using fluorescence plate reader.
Assay was done in 96 well black microplate and total volume of the assay is 100 ul. Mouse liver enzyme is diluted 1:6 with HDAC buffer. Enzyme cocktail made of 10 ul of diluted enzyme and 30 ul of HDAC buffer. 40 ul of enzyme cocktail dispensed into each well. 10 ul of different concentrations of inhibitor added in to each well, except enzyme control well. Preincubated the plate at 30° C. for 5 minutes. The HDAC reaction is started by adding 50 ul of HDAC substrate (Boc-Lys (Ac)-AMC Substrate) solution. Incubated the plate at 30° C. for 30 minutes. Adding 100 ul of Trypsin stop solution stops the reaction. The plate is incubated again at 30° C. for 20-30 minutes. The release of AMC is monitored by measuring the fluorescence at excitation wavelength of 365 or 360 nm and emission wavelength of 440 or 460 nm. Buffer and substrate alone kept for blank subtraction. (Dennis Wegener et al, Anal. Biochem, 321, 2003, 202-208).

For assay [4], the system named is MDAMB231/U251. Description: cells. The note with it: 48 h, read-out: MDAMB231/U251 GI50. The method, then:
as §1, §2, §3
(§4) Percent growth is calculated for each compound's concentration relative to the control and zero measurement wells (T0; viability right before compound addition).
(§5) If a test well's O.D. value is lower than the T0 measurement for that cell line, then, % Growth=(test−zero)/zero×100

The test system of another assay is NCIH 460 cells. As to the kind of experiment: cells. As to conditions: Homo sapiens, NCI-H460, 48 h; for GI50: read-out: NCIH460 GI50; for CC50: read-out: NCIH460 LC50. The method, then: as §1, §2, §3, §4, §5
The subject of another assay is HCT 116 cells. As to the kind of experiment: cells. The note with it: Homo sapiens, HCT-116, 48 h; for GI50: read-out: HCT116 GI50; for CC50: read-out: HCT116 LC50. The method, then:
as §1, §2, §3, §4, §5

By IC50 is commonly meant the concentration at which inhibition is half-maximal. As for `COc1cc(/C=C(\C(=O)NCCCCCC(=O)NO)c2ccc(F)cc2)cc(OC)c1` [Example 1, (2Z)-3-(3,5-Dimethoxyphenyl)-2-(4-fluorophenyl)-N-[6-(hydroxyamino)-6-oxohexyl]acrylamide], the GI50 is 2.6 µM in assay [1], 0.1 µM with MDAMB231/U251 [4], more than 100 µM in the assay with NCIH 460 cells and 5 µM in the assay on HCT 116 cells. Moreover, the CC50 was 75 µM in the assay with MDAMB231/U251 [2], more than 100 µM in the assay on NCIH 460 cells and 70 µM in the assay with HCT 116 cells. In addition, the “HDAC Inhibition 1 μM” value in assay [3] worked out at 53.76. Further, the “HDAC Inhibition 10 μM” value in assay [3] is recorded as 66.42. The same molecule showed an IC50 in assay [3] of 0.22 µM.

For `COc1cc(/C=C(\C(=O)NCCCCCC(=O)Nc2ccccc2O)c2ccc(F)cc2)cc(OC)c1` [Example 2], the GI50 was 29 µM in assay [1], 30 µM in the assay with MDAMB231/U251 [4], 27 µM in the assay on NCIH 460 cells and 30 µM in the assay with HCT 116 cells. For the same molecule, the CC50 was more than 100 µM in the assay on MDAMB231/U251 [2], 56 µM in the assay with NCIH 460 cells and 73 µM in the assay on HCT 116 cells. Moreover, the “HDAC Inhibition 1 μM” value in assay [3] was found to be 7.73. In assay [3], the “HDAC Inhibition 10 μM” value came out at 10.46.

On to `COc1cc(/C=C(\C(=O)NCCCCCC(=O)Nc2cccc(O)c2)c2ccc(F)cc2)cc(OC)c1` [Example 3], for which the GI50 turned out to be 54.3 µM in assay [1], 73 µM in the assay with MDAMB231/U251 [4], 50 µM with NCIH 460 cells and 40 µM with HCT 116 cells. Moreover, the CC50 in the assay with MDAMB231/U251 [2], in the assay with NCIH 460 cells and in the assay with HCT 116 cells was more than 100 µM in each case. Also, in assay [3], the “HDAC Inhibition 1 μM” value is −6.41. The “HDAC Inhibition 10 μM” value in assay [3] is given as −6.45.

As to `COc1cc(/C=C(\C(=O)NCCCCCC(=O)Nc2ccccc2N)c2ccc(O)cc2)cc(OC)c1` [Example 4], the GI50 in assay [1] is 36 µM; in the assay on MDAMB231/U251 [4], 55 µM; in the assay with NCIH 460 cells, 45 µM; with HCT 116 cells it was 9.4 µM. Moreover, the CC50 is more than 100 µM in the assay on MDAMB231/U251 [2], more than 100 µM with NCIH 460 cells and 80 µM in the assay with HCT 116 cells. Also, in assay [3], the “HDAC Inhibition 1 μM” value was found to be 16.9. Besides, the “HDAC Inhibition 10 μM” value in assay [3] came to 24.

Turning to `COc1cc(/C=C(\C(=O)NCCCCCC(=O)Nc2ccccc2O)c2ccc(O)cc2)cc(OC)c1` [Example 5], the GI50 in assay [1] stood at 50 µM; with MDAMB231/U251 [4] it was 65 µM; in the assay with NCIH 460 cells, 50 µM; in the assay on HCT 116 cells, 35 µM. For the same molecule, the figures for the CC50 in the assay on MDAMB231/U251 [2], in the assay with NCIH 460 cells and in the assay on HCT 116 cells were 92 µM, 100 µM and 90 µM, respectively. Moreover, in assay [3], the “HDAC Inhibition 1 μM” value came to 19.6. Besides, in assay [3], the “HDAC Inhibition 10 μM” value was found to be 35.3.

With `COc1cc(/C=C(\C(=O)NCCCCCC(=O)Nc2ccccc2O)c2ccc(O)cc2)cc(OC)c1OC` [Example 6], the GI50 in assay [1] worked out at 47 µM; in the assay on MDAMB231/U251 [4], 60 µM; in the assay on NCIH 460 cells, 44 µM; with HCT 116 cells, 38 µM. For the same molecule, the CC50 with MDAMB231/U251 [2] was more than 100 µM; in the assay with NCIH 460 cells, 85 µM; in the assay on HCT 116 cells it was 91 µM. For the same molecule, the “HDAC Inhibition 1 μM” value in assay [3] was found to be 15.9. In addition, in assay [3], the “HDAC Inhibition 10 μM” value is reported as 36.1.

On to `COc1cc(/C=C(\C(=O)NCCCCCC(=O)N(C)OC)c2ccc(O)cc2)cc(OC)c1OC` [Example 7, (2Z)-3-(3,4,5-Trimethoxyphenyl)-2-(4-hydroxyphenyl)-N-[6-(N,O dimethylamine)-6-oxohexyl]acrylamide], for which the GI50 in assay [1] was 0.6 µM; in the assay on MDAMB231/U251 [4], 0.8 µM; with NCIH 460 cells, 0.01 µM; with HCT 116 cells, 0.98 µM. In addition, the CC50 in the assay on MDAMB231/U251 [2] was more than 100 µM; in the assay on NCIH 460 cells, 10 µM; in the assay with HCT 116 cells, more than 100 µM. The “HDAC Inhibition 1 μM” value in assay [3] is listed as 7.3. In addition, the “HDAC Inhibition 10 μM” value in assay [3] worked out at 3.8.
